Measurements published in PMC12030301, “Caffeic Acid Phenethyl Ester (CAPE) Inhibits Arginase Activity and Growth of Leishmania amazonensis Promastigotes and Intracellular Amastigotes” (Pathogens, 2025).

Biological target: T1, arginase
T1 construct: purified recombinant arginase
Assay: enzyme inhibition kinetics with purified recombinant arginase; Dixon and Cornish-Bowden plots (IC50 […])
Format: biochemical, Leishmania amazonensis

## O=C(/C=C/c1ccc(O)c(O)c1)OCCc1ccccc1 [CAPE, Caffeic acid phenethyl ester]
  Ki: 1510 ± 40 nM
